According to US11274097B2, “2-(het)aryl-substituted condensed bicyclic heterocycle derivatives as pest control agents” (BAYER CROPSCIENCE AKTIENGESELLSCHAFT, priority 2014, dated 2022):
Like-named read-outs stand apart in the source and are kept apart here.

How the values were obtained:
Phaedon cochleariae = Phaedon cochleariae spray test (PHAECO); format: in vivo; settings: application rate 500 g/ha; larvae; after 7 days
Method: Phaedon cochleariae—Spray Test (PHAECO)
Solvent: 78.0 parts by weight of acetone • • 1.5 parts by weight of dimethylformamide
Emulsifier: alkylaryl polyglycol ether
To produce an appropriate active ingredient formulation, 1 part by weight of active ingredient is dissolved using the stated parts by weight of solvent and made up with water containing an emulsifier concentration of 1000 ppm until the desired concentration is attained. To produce further test concentrations, the preparation is diluted with emulsifier-containing water.
Discs of Chinese cabbage leaves (Brassica pekinensis) are sprayed with an active ingredient formulation of the desired concentration and, after drying, populated with larvae of the mustard beetle (Phaedon cochleariae).
After 7 days, the efficacy in % is determined. 100% means that all the beetle larvae have been killed; 0% means that no beetle larvae have been killed.

[1] = log P by HPLC on a reversed-phase column (C 18), EEC Directive 79/831 Annex V.A8; format: physicochemical; settings: for LOGP_NEUTRAL: pH 7.8, 0.001 molar aqueous ammonium hydrogencarbonate/acetonitrile; for chromatographic logP: reversed-phase HPLC column (C 18)
Method: The log P values are measured according to EEC Directive 79/831 Annex V.A8 by HPLC (high-performance liquid chromatography) on a reversed-phase column (C 18). Temperature: 55° C. The LC-MS determination in the acidic range is effected at pH 2.7 using 0.1% aqueous formic acid and acetonitrile (contains 0.1% formic acid) as eluents, linear gradient from 10% acetonitrile to 95% acetonitrile. Called log P (HCOOH) in the table. LC-MS determination in the neutral range is effected at pH 7.8 with 0.001 molar aqueous ammonium hydrogencarbonate solution and acetonitrile as eluents; linear gradient from 10% acetonitrile to 95% acetonitrile. Called log P (neutral) in the table. Calibration is effected with unbranched alkan-2-ones (having 3 to 16 carbon atoms) with known log P values (log P values determined on the basis of the retention times by linear interpolation between two successive alkanone s).

[2] = acidic range, pH 2.7, 0.1% aqueous formic acid/acetonitrile, 55° C.
[3] = neutral range, pH 7.8, read-out: log P (neutral)

LOGP_HCOOH [1, 2]	LOGP_NEUTRAL ([1]; neutral range, 55° C.)	chromatographic logP [1, 3]	chromatographic logP ([1]; acidic range, pH 2.7, 0.1% aqueous formic acid/acetonitrile, 55° C., read-out: LOGP_HCOOH)	SMILES	efficacy (Phaedon cochleariae)
2.25	2.20			COc1ccc(S(C)(=O)=O)c(-c2nc3cc(C(F)(F)F)ncc3n2C)n1 [Example I-73]	100%
3.37	3.32			CCCS(=O)(=O)c1cc(C(F)(F)F)cnc1-c1nc2cc(C(F)(F)F)ncc2n1C [Example I-32]	
3.08	2.97			CSc1cc(Cl)ccc1-c1nc2cc(C(F)(F)F)ncc2n1C [Example I-25]	100%
2.12	2.11			CC[S+]([O-])c1cccnc1-c1nc2cc(C(F)(F)F)ncc2n1C (centres unmarked) [Example I-33]	
2.72	2.67			CCS(=O)(=O)CCS(=O)(=O)c1cc(C(F)(F)F)cnc1-c1nc2cc(C(F)(F)F)ncc2n1C [Example I-7]	
2.41	2.31			Cn1c(-c2ncc(C(F)(F)F)cc2SCCO)nc2cc(C(F)(F)F)ncc21 [Example I-59]	
3.84	3.73			CCS(=O)(=O)c1cc(C(F)(F)F)cnc1-c1nc2cc(-n3cc(C(F)(F)F)cn3)ncc2n1C [Example I-76]	
3.66	3.64			CCSc1ccccc1-c1nc2nc(C(F)(F)F)ncc2o1 [Example I-9]	
	2.19			Cn1c(-c2ncc(C(F)(F)F)cc2S(=O)(=O)CCO)nc2cc(C(F)(F)F)ncc21 [Example I-58]	
2.32	2.26			CCS(=O)(=O)c1cc(C#N)cnc1-c1nc2cc(C(F)(F)F)ncc2n1C [Example I-72]	
2.67	2.64	2.64		Cn1c(-c2ncc(C(F)(F)F)cc2S(C)(=O)=O)nc2cc(C(F)(F)F)ncc21 [Example I-36, 3-Methyl-2-[3-(methylsulphonyl)-5-(trifluoromethyl)pyridin-2-yl]-6-(trifluoromethyl)-3H-imidazo[4,5-c]pyridine]	100%
1.87	1.84			Cn1c(-c2ccccc2S(=O)(=O)C2COC2)nc2cc(C(F)(F)F)ncc21 [Example I-27]	
2.41	2.36			Cn1c(-c2ccc(C(F)(F)F)cc2[S+](C)[O-])nc2cc(C(F)(F)F)ncc21 (centres unmarked) [Example I-30]	83%
3.54	3.46			CC(C)[S+]([O-])c1cc(C(F)(F)F)cnc1-c1nc2cc(C(F)(F)F)ncc2n1C (centres unmarked) [Example I-8]	
1.95	1.92			CCS(=O)(=O)c1cccnc1-c1nc2cc(C(F)(F)F)ncc2n1C [Example I-15]	
4.37	4.32			CCSc1cc(C(F)(F)F)cnc1-c1nc2cc(-n3ccc(C(F)(F)F)n3)ncc2n1C [Example I-69]	
3.94	3.86			CCCSc1cc(C(F)(F)F)cnc1-c1nc2cc(C(F)(F)F)ncc2n1C [Example I-31]	100%
2.89	2.82			Cn1c(-c2ncc(C(F)(F)F)cc2S(=O)(=O)CCF)nc2cc(C(F)(F)F)ncc21 [Example I-57]	
3.90	3.81			CCS(=O)(=O)c1cc(C(F)(F)F)cnc1-c1nc2cc(-n3ccc(C(F)(F)F)n3)ncc2n1C [Example I-77]	

LOGP_HCOOH [1, 2]	LOGP_NEUTRAL ([1]; neutral range, 55° C.)	chromatographic logP [1, 3]	chromatographic logP ([1]; acidic range, pH 2.7, 0.1% aqueous formic acid/acetonitrile, 55° C., read-out: LOGP_HCOOH)	SMILES	efficacy (Phaedon cochleariae)
2.75	2.74			CSc1cc(Cl)ccc1-c1nc2nc(C(F)(F)F)ncc2n1C [Example I-6]	
3.80	3.73			CC(C)Sc1cc(C(F)(F)F)cnc1-c1nc2cc(C(F)(F)F)ncc2n1C [Example I-41]	100%
4.03	4.07	4.07		CCSc1ccccc1-c1nc2cc(C(F)(F)F)ncc2o1 [Example I-35, 2-[2-(Ethylsulphanyl)phenyl]-6-(trifluoromethyl)[1,3]oxazolo[5,4-c]pyridine]	
4.37	4.31			CCSc1cc(C(F)(F)F)cnc1-c1nc2cc(-n3cc(C(F)(F)F)cn3)ncc2n1C [Example I-65]	
2.08	2.05			Cn1c(-c2ccc(F)cc2S(C)(=O)=O)nc2cc(C(F)(F)F)ncc21 [Example I-20]	
4.38	4.41			CSc1cc(Cl)ccc1-c1nc2cc(C(F)(F)F)ncc2o1 [Example I-34]	
2.93				CCCS(=O)(=O)c1ccc(OC)nc1-c1nc2cc(C(F)(F)F)ncc2n1C [Example I-71]	
3.93	3.95	3.95		CCSc1cc(C(F)(F)F)cnc1-c1nc2cc(-c3ccc(C(F)(F)F)cc3)ncc2n1C [Example I-64, 2-[3-ethylsulphanyl-5-(trifluoromethyl)-2-pyridyl]-3-methyl-6-[4-(trifluoromethyl)-phenyl]imidazo[4,5-c]pyridine]	
		2.96		Cn1c(-c2ncc(C(F)(F)F)cc2Cl)nc2cc(C(F)(F)F)ncc21 [IX-01, 2-[3-chloro-5-(trifluoromethyl)pyridin-2-yl]-3-methyl-6-(trifluoromethyl)-3H-imidazo[4,5-c]pyridine]	
3.50	3.42			CCCSc1ccc(OC)nc1-c1nc2cc(C(F)(F)F)ncc2n1C [Example I-66]	
3.15	3.10			FC(F)(F)c1cc2nc(-c3ccccc3SC3COC3)oc2cn1 [Example I-40]	
2.17	2.15			CCS(=O)(=O)c1c(Cl)cccc1-c1nc2cc(C(F)(F)F)ncc2n1C [Example I-62]	
		1.59		CCSc1ccccc1C(=O)Nc1cc(C(F)(F)F)ncc1O [VIII-02, 2-(ethylsulphanyl)-N-[5-hydroxy-2-(trifluoromethyl)pyridin-4-yl]benzamide]	
	3.36	3.36	3.49	CCSc1cc(C(F)(F)F)cnc1-c1nc2cc(-n3cnc(C(F)(F)F)c3)ncc2n1C [Example I-74, 2-[3-ethylsulphanyl-5-(trifluoromethyl)-2-pyridyl]-3-methyl-6-[4-(trifluoromethyl)-imidazol-1-yl]imidazo[4,5-c]pyridine]	
		3.09		CNc1cnc(C(F)(F)F)cc1NC(=O)c1ncc(C(F)(F)F)cc1Cl [VIII-01, 3-chloro-N-[5-(methylamino)-2-(trifluoromethyl)pyridin-4-yl]-5-(trifluoromethyl)pyridine-2-carboxamide]	
3.86	3.77			CSc1cc(Cl)ccc1-c1nc2nc(C(F)(F)F)ncc2o1 [Example I-1]	
3.26	3.21			CC(C)S(=O)(=O)c1cc(C(F)(F)F)cnc1-c1nc2cc(C(F)(F)F)ncc2n1C [Example I-16]	
2.94	2.84			CCS(=O)(=O)c1cc(C(F)(F)F)cnc1-c1nc2cc(-n3cnc(C(F)(F)F)c3)ncc2n1C [Example I-75]	
2.75	2.70			COc1ccc(SC)c(-c2nc3cc(C(F)(F)F)ncc3n2C)n1 [Example I-67]	

SMILES	LOGP_HCOOH [1, 2]	LOGP_NEUTRAL ([1]; neutral range, 55° C.)	chromatographic logP [1, 3]	chromatographic logP ([1]; acidic range, pH 2.7, 0.1% aqueous formic acid/acetonitrile, 55° C., read-out: LOGP_HCOOH)	efficacy (Phaedon cochleariae)
CCSc1cc(C(N)=O)cnc1-c1nc2cc(C(F)(F)F)ncc2n1C [Example I-60]	1.77	1.76			
